Results published in US20250304549A1, “HYDROXYAMIDE DERIVATIVE AND USE THEREOF” (SICHUAN HUIYU PHARMACEUTICAL CO., LTD., priority 2022, published 2025).
Where a name gives a salt, the structure may show the parent alone.

Legend:
DU145 cells = test: In vitro cell inhibition assay - DU145 cell proliferation (CellTiter-Glo); assay type: cell-based
Protocol: 5. In Vitro Cell Inhibition Assay—DU145 Cell Proliferation
The inhibitory effect of the compounds on cell proliferation was assessed by detecting the number of viable cells using the CellTiter-Glo® reagent. DU145 cells in the logarithmic growth phase were collected and inoculated into transparent bottom 96-well plates at a density 1×10^3 cells per well with 100 μL medium, and incubated at 37° C., 5% CO2 overnight. The compounds were sequentially diluted in a 5-fold concentration gradient with DMSO to obtain 8 different concentrations. These were then diluted with RPMI-640 (containing 10% FBS) cell culture medium to obtain the compound working solution (2×), which was added to the cell supernatant at 100 μL per well. The incubation continued for 6 days at 37° C., 5% CO2. The plate was then removed and equilibrated at room temperature (25° C.) along with the CellTiter-Glo® mixing reagent for 10-30 minutes. After centrifugation, 120 μL of the culture medium was carefully aspirated from each well, and 60 μL of CellTiter-Glo® reagent was added. The cells were thoroughly mixed with the CellTiter-Glo® mixing reagent using a microplate shaker for 2 min. and then incubated at room temperature for 10 min. The 96-well plate was subsequently placed on a multifunctional microplate reader to record the Luminescence values (RLU).
The inhibition rate was calculated using the following formula: […]
Note: ‘Negative’ refers to the group without inhibitors; ‘Blank’ refers to the group without cells.
The IC50 value was determined by fitting the inhibition rate by GraphPad Prism software.

LSD1 = LSD1 (Homo sapiens (Human), UniProt O60341); test: In vitro enzyme inhibition assay - LSD1 (HTRF); assay type: biochemical
NCI-H1417 cells = test: In vitro cell inhibition assay - H1417 cell proliferation (CellTiter-Glo); assay type: cell-based
How it was run: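 Cells exposed to 8 compound concentrations (5-fold dilutions) in BEGM with 10% FBS for 7 days at 37° C., 5% CO2. Viable cells measured by CellTiter-Glo luminescence; inhibition versus no-inhibitor and no-cell controls, IC50 fitted.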

HDAC8 = HDAC8 (Homo sapiens (Human), UniProt Q9BY41); test: In vitro enzyme inhibition assay - HDAC (HDAC-Glo I/II), HDAC8; assay type: biochemical; settings: read-out: HDAC IC50 (nM) HDAC 8
How it was run: (§1)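 Eight compound concentrations (5-fold gradient; 1 mM DMSO stock) were assayed by HDAC-Glo I/II luminescence. IC50 was obtained by four-parameter fitting.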

pan-HDAC = test: In vitro enzyme inhibition assay - HDAC (HDAC-Glo I/II), pan-HDAC; assay type: biochemical
How it was run: as §1

NCI-H69 cells = test: In vitro cell inhibition assay - NCI-H69 cell proliferation (CellTiter-Glo); assay type: cell-based
How it was run: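 Proliferation was assessed after a 7-day compound treatment of cells seeded at 1×10^3 per well. IC50 values came from fitting inhibition rates derived from CellTiter-Glo luminescence.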

[1] = Homo sapiens, DU-145, Du145 prostate cancer cell proliferation
[2] = Homo sapiens, NCI-H1417, H1417 small cell lung cancer cell proliferation
[3] = Homo sapiens, NCI-H69, H69 small cell lung cancer cell proliferation

HDAC8, sequence (Q9BY41 whole entry): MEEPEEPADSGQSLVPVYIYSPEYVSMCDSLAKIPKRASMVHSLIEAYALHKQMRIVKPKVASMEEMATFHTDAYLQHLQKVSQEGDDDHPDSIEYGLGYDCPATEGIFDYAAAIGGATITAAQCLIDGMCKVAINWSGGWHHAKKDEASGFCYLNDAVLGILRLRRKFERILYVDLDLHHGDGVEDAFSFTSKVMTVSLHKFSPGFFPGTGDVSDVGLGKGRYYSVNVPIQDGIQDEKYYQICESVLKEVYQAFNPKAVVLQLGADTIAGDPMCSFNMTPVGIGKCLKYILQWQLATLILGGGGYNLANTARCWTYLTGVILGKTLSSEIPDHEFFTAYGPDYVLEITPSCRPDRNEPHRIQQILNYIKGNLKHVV

Structure (SMILES) | IC50 (DU145 cells; [1]) | IC50 (LSD1) | IC50 (NCI-H1417 cells; [2]) | IC50 (HDAC8) | IC50 (pan-HDAC) | IC50 (NCI-H69 cells; [3]) | IC50 (DU145 cells; Du145 prostate cancer cell proliferation) | IC50 (NCI-H1417 cells; H1417 small cell lung cancer cell proliferation) | IC50 (NCI-H69 cells; H69 small cell lung cancer cell proliferation)
COc1cc(-c2cnc(N3CCC(NCc4cccc(/C=C/C(=O)NO)c4)CC3)c(C#N)c2-c2ccc(C#N)c(F)c2)ccc1O [Example 98, (E)-3-(3-((1-(3-Cyano-4-(4-cyano-3-fluorophenyl)-5-(4-hydroxy-3-methoxyphenyl)pyridin-2-yl)piperidin-4-yl)amino)methyl) phenyl)-N-hydroxyacrylamide formate] | 2230 nM | 160 nM | 707 nM | 480 nM | 394 nM | 528 nM | – | – | –
Cn1cnc2cc(-c3cnc(N4CCC(NCc5ccc(/C=C/C(=O)NO)cc5)CC4)c(C#N)c3-c3ccc(C#N)c(F)c3)ccc21 [Example 136, (E)-3-(4-(((1-(3-Cyano-4-(4-cyano-3-fluorophenyl)-5-(1-methyl-1H-benzo[d]imidazol-5-yl))pyridin-2-yl)piperidin-4-yl)amino)methyl) phenyl)-N-hydroxyacrylamide formate] | 364 nM | 17.2 nM | 29.1 nM | 77.7 nM | 10.4 nM | 93.7 nM | – | – | –
COc1ccc(-c2ccc(CN3CC[C@H](NCc4ccc(/C=C/C(=O)NO)cc4)C3)cc2-c2ccc(C#N)c(F)c2)cc1O [Example 74, (S,E)-3-(4-(((1-((4″-cyano-3″-fluoro-3-hydroxy-4-methoxy-[1,1:2′,1″-terphenyl]-4′-yl)methyl)pyrrolidin-3-yl)amino)methyl)phenyl)-N-hydroxyacrylamide formate] | – | 2.26 nM | – | 207 nM | 23.1 nM | – | 553 nM | 40.1 nM | 205 nM
COc1ccc(-c2c(-c3ccc(C#N)c(F)c3)nc(N3CCC(NCc4ccc(/C=C/C(=O)NO)cc4)CC3)n3ccnc23)cc1O [Example 70, (E)-3-(4-(((1-(7-(4-Cyano-3-fluorophenyl)-8-(3-hydroxy-4-methoxyphenyl)imidazo[1,2-c]pyrimidin-5-yl)piperidin-4-yl)amino)methyl)phenyl)-N-hydroxyacrylamide formate] | 262 nM | 1.18 nM | 1.44 nM | 26.5 nM | 76.6 nM | 214 nM | – | – | –
COc1cc(-c2cnc(N3CCC(NCCc4cccc(/C=C/C(=O)NO)c4)CC3)c(C#N)c2-c2ccc(C#N)c(F)c2)ccc1O [Example 92, (E)-3-(3-(2-(1-(3-Cyano-4-(4-cyano-3-fluorophenyl)-5-(4-hydroxy-3-methoxyphenyl)pyridin-2-yl)piperidin-4-yl)amino)ethyl) phenyl)-N-hydroxyacrylamide formate] | 2370 nM | 1.41 nM | 63 nM | 623 nM | 340 nM | 497 nM | – | – | –
COc1ccc(-c2cnc(N3CCC(Nc4cccc(/C=C/C(=O)NO)c4)CC3)c(C#N)c2-c2ccc(C#N)c(F)c2)cc1O [Example 81, (E)-3-(3-((1-(3-cyano-4-(4-cyano-3-fluorophenyl)-5-(3-hydroxy-4-methoxyphenyl)pyridin-2-yl)piperidin-4-yl)amino)phenyl)-N-hydroxyacrylamide formate] | 776 nM | 140 nM | 73.9 nM | 695 nM | 1220 nM | 516 nM | – | – | –
COc1ccc(-c2cnc(N3CCC(NCc4ncc(/C=C/C(=O)NO)s4)CC3)c(C#N)c2-c2ccc(C#N)c(F)c2)cc1O [Example 151, (E)-3-(2-(((1-(3-Cyano-4-(4-cyano-3-fluorophenyl)-5-(3-hydroxy-4-methoxyphenyl)pyridin-2-yl)piperidin-4-yl)amino)methyl)thiazol-5-yl)-N-hydroxyacrylamide hydrochloride] | 308 nM | 2.7 nM | 10.4 nM | 618 nM | 27.4 nM | 189 nM | – | – | –
N#Cc1ccc(-c2c(-c3ccc(OC(F)F)c(O)c3)cnc(N3CCC(NCc4cnc(/C=C/C(=O)NO)nc4)CC3)c2C#N)cc1F [Example 145, (E)-3-(5-(((1-(3-Cyano-4-(4-cyano-3-fluorophenyl)-5-(4-(difluoromethoxy)-3-hydroxyphenyl)pyridin-2-yl)piperidin-4-yl)amino)methyl)pyrimidin-2-yl)-N-hydroxyacrylamide formate] | 37.8 nM | 3.35 nM | 18.6 nM | 74.9 nM | 5.23 nM | 39.3 nM | – | – | –

More lines, now with the values ahead:

IC50 (DU145 cells; [1]) | IC50 (LSD1) | IC50 (NCI-H1417 cells; [2]) | IC50 (HDAC8) | IC50 (pan-HDAC) | IC50 (NCI-H69 cells; [3]) | IC50 (DU145 cells; Du145 prostate cancer cell proliferation) | IC50 (NCI-H1417 cells; H1417 small cell lung cancer cell proliferation) | IC50 (NCI-H69 cells; H69 small cell lung cancer cell proliferation) | Structure (SMILES)
2330 nM | 1.29 nM | 10.4 nM | 50.6 nM | 378 nM | 1040 nM | – | – | – | COc1ccc(-c2cnc(N3CCC(NCCCc4ccc(C(=O)NO)cc4)CC3)c(C#N)c2-c2ccc(C#N)c(F)c2)cc1O [Example 107, 4-(3-(3-Cyano-4-(4-cyano-3-fluorophenyl)-5-(3-hydroxy-4-methoxyphenyl)pyridin-2-yl)piperidin-4-yl)amino)propyl)-N-hydroxybenzamide formate]
239 nM | 0.39 nM | 2.01 nM | 223 nM | 5 nM | 130 nM | – | – | – | COc1ccc(-c2cnc(N3CCC(NCc4ccc(OCC(=O)NO)c(OC)c4)CC3)c(C#N)c2-c2ccc(C#N)c(F)c2)cc1O [Example 128, 2-(4-((1-(3-Cyano-4-(4-cyano-3-fluorophenyl)-5-(3-hydroxy-4-methoxyphenyl)pyridin-2-yl)piperidin-4-yl)amino)methyl)-2-methoxyphenoxy)-N-hydroxyacetamide formate]
6340 nM | 0.16 nM | 2.25 nM | 37.1 nM | 20.6 nM | 3340 nM | – | – | – | COc1ccc(-c2cnc(N3CCC(NCCNc4ncc(C(=O)NO)cn4)CC3)c(C#N)c2-c2ccc(C#N)c(F)c2)cc1O [Example 115, 2-(2-(1-(3-Cyano-4-(4-cyano-3-fluorophenyl)-5-(3-hydroxy-4-methoxyphenyl)pyridin-2-yl)piperidin-4-yl)amino)ethyl) amino)-N-hydroxypyrimidine-5-carboxamide formate]
2820 nM | 8.51 nM | 76.8 nM | 374 nM | 438 nM | 1140 nM | – | – | – | COc1ccc(-c2cnc(N3CCC(Nc4ncc(C(=O)NO)cn4)CC3)c(C#N)c2-c2ccc(C#N)c(F)c2)cc1O [Example 83, 2-((1-(3-Cyano-4-(4-cyano-3-fluorophenyl)-5-(3-hydroxy-4-methoxyphenyl)pyridin-2-yl)piperidin-4-yl)amino)-N-hydroxypyrimidine-5-carboxamide formate]
3820 nM | 4.19 nM | 2.76 nM | 391 nM | 657 nM | 411 nM | – | – | – | COc1ccc(-c2cnc(N3CCC(NCc4ccc(C#CC(=O)NO)cc4)CC3)c(C#N)c2-c2ccc(C#N)c(F)c2)cc1O [Example 109, 3-(4-(1-(3-Cyano-4-(4-cyano-3-fluorophenyl)-5-(3-hydroxy-4-methoxyphenyl)pyridin-2-yl)piperidin-4-yl)amino)methyl) phenyl)-N-hydroxypropiolamide formate]
223 nM | 1.15 nM | 4.91 nM | 131 nM | 2.57 nM | 208 nM | – | – | – | COc1ccc(-c2cnc(N3CCC(NCc4cnc(CCC(=O)NO)nc4)CC3)c(C#N)c2-c2ccc(C#N)c(F)c2)cc1O [Example 152, 3-(5-((1-(3-Cyano-4-(4-cyano-3-fluorophenyl)-5-(3-hydroxy-4-methoxyphenyl)pyridin-2-yl)piperidin-4-yl)amino)methyl) pyrimidin-2-yl)-N-hydroxypropanamide hydrochloride]
3770 nM | 0.33 nM | 11.1 nM | 1950 nM | 1310 nM | 938 nM | – | – | – | COc1ccc(-c2cnc(N3CCC(NCCc4ccc(CC(=O)NO)cc4)CC3)c(C#N)c2-c2ccc(C#N)c(F)c2)cc1O [Example 120, 2-(4-(2-((1-(3-Cyano-4-(4-cyano-3-fluorophenyl)-5-(3-hydroxy-4-methoxyphenyl)pyridin-2-yl)piperidin-4-yl)amino)ethyl)phenyl)-N-hydroxyacetamide formate]
